# pIC50: −log10 of the molar value.
# How the values were obtained:
# Bcr-Abl = target: T1, Bcr-Abl (Homo sapiens, UniProt P00519); experiment: Test for activity against Bcr-Abl (phosphorylation ELISA in 32D-bcr/abl cells); type: cell-based, murine; settings: 32D cells transfected with p210 Bcr-Abl; ELISA of Bcr-Abl phosphorylation; read-out: bcrabl32DcEL/ Average<32Dp210IC50 [umol l−1]>
# T1 construct: host or cells: murine myeloid progenitor cell line 32Dcl3 (32D-bcr/abl); the other entry of the earlier key: BCR (P11274, Breakpoint cluster region protein)
# Experimental: Test for activity against Bcr-Abl. The murine myeloid progenitor cell line 32Dcl3 transfected with the p210 Bcr-Abl expression vector pGDp210Bcr/Abl (32D-bcr/abl) was obtained from J. Griffin (Dana Faber Cancer Institute, Boston, Mass., USA). The cells express the fusion Bcr-Abl protein with a constitutively active Abl kinase and proliferate growth factor independent. The cells are expanded in RPMI 1640 (AMIMED), 10% fetal calf serum, 2 mM glutamine (Gibco) (“complete medium”), and a working stock is prepared by freezing aliquots of 2×10^6 cells per vial in freezing medium (95% FCS, 5% DMSO (SIGMA)). After thawing, the cells are used during maximally 10-12 passages for the experiments.
# For cellular assays, compounds are dissolved in DMSO and diluted with complete medium to yield a starting concentration of 10 μM followed by preparation of serial 3-fold dilutions in complete medium. 200,000 32D-Bcr/Abl cells in 50 μL complete medium are seeded per well in 96 well round bottom tissue culture plates. 50 μL per well of serial 3-fold dilutions of the test compound are added to the cells in triplicates. Untreated cells are used as control. The compound is incubated together with the cells for 90 min at 37° C., 5% CO2, followed by centrifugation of the tissue culture plates at 1300 rpm (Beckman GPR centrifuge) and removal of the supernatants by careful aspiration taking care not to remove any of the pelleted cells. The cell pellets are lysed by addition of 150 μL lysis buffer (50 mM Tris/HCl, pH 7.4, 150 mM sodium chloride, 5 mM EDTA, 1 mM EGTA, 1% NP-40, 2 mM sodium ortho-vanadate, 1 mM PMSF, 50 μg/mL aprotinin and 80 μg/mL leupeptin) and either used immediately for the ELISA or stored frozen in the plates at −20° C. until usage.
# Black ELISA plates (Packard HTRF-96 black plates) are precoated over night at 4° C. with 50 ng/well of the rabbit polyclonal anti-abl-SH3 domain Ab 06-466 from Upstate in 50 μL PBS. After washing 3 times with 200 μL/well PBS containing 0.05% Tween20 (PBST) and 0.5% TopBlock (Juro), residual protein binding sites are blocked with 200 μL/well PBST, 3% TopBlock for 4 h at room temperature followed by incubation with 50 μL lysates of untreated or compound-treated cells (20 μg total protein per well) for 3-4 h at 4° C. After 3 washings, 50 μL/well anti-phosphotyrosine Ab PY20(AP) labeled with alkaline phosphatase (Zymed) diluted to 0.2 μg/mL in blocking buffer is added and incubated over night (4° C.). For all incubation steps the plates are covered with plate sealers (Costar). Finally, the plates are washed another three times with washing buffer and once with deionized water before addition of 90 μL/well of the AP-substrate CDPStar RTU with Emerald II. The plates, now sealed with Packard TopSeal™-A plate sealers, are incubated for 45 min at room temperature in the dark and luminescence is quantified by measuring counts per second (CPS) with a Packard Top Count Microplate Scintillation Counter (Top Count). The difference between the ELISA-readout (CPS) obtained for with the lysates of the untreated 32D-Bcr/Abl cells and the readout for the assay-background (all components, but without cell lysate) is calculated and taken as 100% reflecting the constitutively phosphorylated Bcr-Abl protein present in these cells. The activity of the compound on the Bcr-Abl kinase activity is expressed as percent reduction of the Bcr-Abl phosphorylation. The values for the IC50 and IC90 are determined from the dose response curves by graphical extrapolation.
# VEGF receptor (KDR) = target: T2, VEGF receptor (KDR) (Homo sapiens, UniProt P35968); experiment: Inhibition of VEGF-induced KDR-receptor autophosphorylation in transfected CHO cells; type: cell-based
# T2 construct: expressed in transfected cells
# Experimental: The inhibition of VEGF-induced KDR-receptor autophosphorylation can be confirmed with a further in vitro experiment in cells: transfected CHO cells, which permanently express human VEGF receptor (KDR), are seeded in complete culture medium with 10% fetal calf serum (FCS) in 6-well cell-culture plates and incubated at 37° C. under 5% CO2 until they show about 80% confluency. The compounds to be tested are then diluted in culture medium (without FCS, with 0.1% bovine serum albumin) and added to the cells. (Controls comprise medium without test compounds). After two hours of incubation at 37° C., recombinant VEGF is added; the final VEGF concentration is 20 ng/mL). After a further five minute incubation at 37° C., the cells are washed twice with ice-cold PBS (phosphate-buffered saline) and immediately lysed in 100 μL lysis buffer per well. The lysates are then centrifuged to remove the cell nuclei, and the protein concentrations of the supernatants are determined using a commercial protein assay (BIORAD). The lysates can then either be immediately used or, if necessary, stored at −20° C.
# A sandwich ELISA is carried out to measure the KDR-receptor phosphorylation: a monoclonal antibody to KDR (for example Mab 1495.12.14) is immobilized on black ELISA plates (OptiPlate™ HTRF-96 from Packard). The plates are then washed and the remaining free protein-binding sites are saturated with 1% BSA in PBS. The cell lysates (20 μg protein per well) are then incubated in these plates overnight at 4° C. together with an anti-phosphotyrosine antibody coupled with alkaline phosphatase (PY20: AP from Transduction Laboratories). […] The luminescence is measured in a Packard Top Count Microplate Scintillation Counter (Top Count). The difference between the signal of the positive control (stimulated with VEGF) and that of the negative control (not stimulated with VEGF) corresponds to VEGF-induced KDR-receptor phosphorylation (=100%). The activity of the tested substances is calculated as % inhibition of VEGF-induced KDR-receptor phosphorylation, wherein the concentration of substance that induces half the maximum inhibition is defined as the IC50 (effective dose for 50% inhibition).
# T1 sequence (P00519 28-1130 limits assumed): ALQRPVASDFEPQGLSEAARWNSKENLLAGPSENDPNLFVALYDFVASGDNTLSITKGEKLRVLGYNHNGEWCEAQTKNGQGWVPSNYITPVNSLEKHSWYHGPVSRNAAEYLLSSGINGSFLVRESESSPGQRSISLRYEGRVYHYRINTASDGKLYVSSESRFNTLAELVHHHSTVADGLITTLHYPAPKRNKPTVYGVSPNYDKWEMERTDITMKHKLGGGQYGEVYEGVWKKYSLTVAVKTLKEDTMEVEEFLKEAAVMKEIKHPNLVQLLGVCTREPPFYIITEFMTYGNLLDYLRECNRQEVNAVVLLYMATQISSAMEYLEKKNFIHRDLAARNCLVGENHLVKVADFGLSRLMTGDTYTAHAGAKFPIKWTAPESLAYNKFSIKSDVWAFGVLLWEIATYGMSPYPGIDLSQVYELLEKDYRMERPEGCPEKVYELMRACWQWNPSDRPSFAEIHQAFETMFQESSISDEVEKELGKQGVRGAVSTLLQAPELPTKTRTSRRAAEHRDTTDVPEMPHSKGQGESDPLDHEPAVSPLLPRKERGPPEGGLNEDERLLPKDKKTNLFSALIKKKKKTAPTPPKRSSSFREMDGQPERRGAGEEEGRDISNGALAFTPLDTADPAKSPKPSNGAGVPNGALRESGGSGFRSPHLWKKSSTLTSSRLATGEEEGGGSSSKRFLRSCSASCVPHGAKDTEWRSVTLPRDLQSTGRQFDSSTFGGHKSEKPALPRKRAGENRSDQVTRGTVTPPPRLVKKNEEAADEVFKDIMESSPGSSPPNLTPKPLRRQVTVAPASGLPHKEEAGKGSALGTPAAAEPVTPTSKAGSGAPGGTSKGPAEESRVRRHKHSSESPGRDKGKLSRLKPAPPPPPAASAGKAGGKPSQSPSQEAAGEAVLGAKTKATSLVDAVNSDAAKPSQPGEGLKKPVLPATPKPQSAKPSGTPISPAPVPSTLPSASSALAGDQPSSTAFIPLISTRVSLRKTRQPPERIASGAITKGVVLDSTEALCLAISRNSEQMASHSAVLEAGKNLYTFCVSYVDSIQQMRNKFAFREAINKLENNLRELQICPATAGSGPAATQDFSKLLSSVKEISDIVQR
# T2 sequence (P35968 20-1356): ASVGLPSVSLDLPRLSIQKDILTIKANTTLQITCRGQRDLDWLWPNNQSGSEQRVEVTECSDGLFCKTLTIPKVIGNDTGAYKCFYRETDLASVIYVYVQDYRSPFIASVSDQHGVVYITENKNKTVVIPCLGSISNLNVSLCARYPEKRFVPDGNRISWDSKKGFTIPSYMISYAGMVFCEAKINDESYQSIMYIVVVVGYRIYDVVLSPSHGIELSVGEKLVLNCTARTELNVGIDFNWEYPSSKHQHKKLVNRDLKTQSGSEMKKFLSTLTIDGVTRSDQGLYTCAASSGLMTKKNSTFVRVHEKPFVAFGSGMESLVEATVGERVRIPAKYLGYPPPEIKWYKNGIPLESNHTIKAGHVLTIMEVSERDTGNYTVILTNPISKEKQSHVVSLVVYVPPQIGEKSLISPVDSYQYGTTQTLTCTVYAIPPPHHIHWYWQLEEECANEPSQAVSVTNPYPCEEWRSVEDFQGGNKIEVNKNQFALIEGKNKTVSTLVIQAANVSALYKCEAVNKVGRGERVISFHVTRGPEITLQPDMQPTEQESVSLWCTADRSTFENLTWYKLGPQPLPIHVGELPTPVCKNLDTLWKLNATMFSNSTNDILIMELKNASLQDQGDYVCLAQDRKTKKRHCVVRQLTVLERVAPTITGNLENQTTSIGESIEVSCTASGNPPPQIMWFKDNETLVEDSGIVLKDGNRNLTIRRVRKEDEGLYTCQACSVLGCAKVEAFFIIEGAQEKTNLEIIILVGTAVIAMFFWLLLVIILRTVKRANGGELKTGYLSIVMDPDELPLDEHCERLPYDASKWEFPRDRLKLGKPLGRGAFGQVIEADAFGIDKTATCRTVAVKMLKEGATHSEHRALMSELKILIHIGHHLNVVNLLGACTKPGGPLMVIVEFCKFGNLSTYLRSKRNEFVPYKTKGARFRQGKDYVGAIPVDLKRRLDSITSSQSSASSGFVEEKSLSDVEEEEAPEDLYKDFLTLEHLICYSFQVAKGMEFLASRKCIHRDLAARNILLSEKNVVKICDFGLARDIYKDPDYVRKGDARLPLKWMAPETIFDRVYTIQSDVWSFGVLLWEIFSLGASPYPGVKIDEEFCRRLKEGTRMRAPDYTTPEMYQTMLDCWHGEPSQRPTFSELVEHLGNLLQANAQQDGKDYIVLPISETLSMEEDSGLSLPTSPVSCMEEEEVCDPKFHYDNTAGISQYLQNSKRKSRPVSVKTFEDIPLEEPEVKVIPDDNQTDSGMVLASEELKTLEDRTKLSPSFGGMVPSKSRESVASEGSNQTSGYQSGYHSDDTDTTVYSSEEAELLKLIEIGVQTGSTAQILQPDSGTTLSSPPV
Compound,pIC50 (Bcr-Abl),KDR (% inh) (VEGF receptor (KDR)) [%]
"CN1CCN(C(=O)c2ccc(-c3cc4c(N(C)C)ncnc4[nH]3)cc2)CC1 [Example 3, [4-(4-Dimethylamino-7H-pyrrolo[2,3-d]pyrimidin-6-yl)-phenyl]-(4-methyl-piperazin-1-yl)-methanone]",6.10,85
"CN1CCN(Cc2ccc(-c3cc4c(N(C)C)ncnc4[nH]3)cc2)CC1 [Example 4, Dimethyl-{6-[4-(4-methyl-piperazin-1-ylmethyl)-phenyl]-7H-pyrrolo[2,3-d]pyrimidin-4-yl}-amine]",6.14,86
"CCN(CC)CCCNC(=O)c1ccc(-c2cc3c(N(C)C)ncnc3[nH]2)cc1 [Example 5, N-(3-Diethylamino-propyl)-4-(4-dimethylamino-7H-pyrrolo[2,3-d]pyrimidin-6-yl)-benzamide]",–,79
"CN(C)c1ncnc2[nH]c(-c3ccc(C(=O)N4CCOCC4)cc3)cc12 [Example 6, [4-(4-Dimethylamino-7H-pyrrolo[2,3-d]pyrimidin-6-yl)-phenyl]-morpholin-4-yl-methanone]",6.03,83
"CN(C)c1ncnc2[nH]c(-c3ccc(C(=O)NCCCN4CCOCC4)cc3)cc12 [Example 7, 4-(4-Dimethylamino-7H-pyrrolo[2,3-d]pyrimidin-6-yl)-N-(3-morpholin-4-yl-propyl)-benzamide]",6.04,79
"CNc1ncnc2[nH]c(-c3ccc(C(=O)N4CCN(C)CC4)cc3)cc12 [Example 12, [4-(4-Methylamino-7H-pyrrolo[2,3-d]pyrimidin-6-yl)-phenyl]-(4-methyl-piperazin-1-yl)-methanone]",–,67
"CN1CCN(C(=O)c2ccc(-c3cc4c(NCCCO)ncnc4[nH]3)cc2)CC1 [Example 15, {4-[4-(3-Hydroxy-propylamino)-7H-pyrrolo[2,3-d]pyrimidin-6-yl]-phenyl}-(4-methyl-piperazin-1-yl)-methanone]",–,80
"CNc1ncnc2[nH]c(-c3ccc(CN4CCN(C)CC4)cc3)cc12 [Example 16, Methyl-{6-[4-(4-methyl-piperazin-1-ylmethyl)-phenyl]-7H-pyrrolo[2,3-d]pyrimidin-4-yl}-amine]",7.29,85
"CCCNc1ncnc2[nH]c(-c3ccc(C(=O)N4CCN(C)CC4)cc3)cc12 [Example 17, (4-Methyl-piperazin-1-yl)-[4-(4-propylamino-7H-pyrrolo[2,3-d]pyrimidin-6-yl)-phenyl]-methanone]",5.79,81
"CCCNc1ncnc2[nH]c(-c3ccc(CN4CCN(C)CC4)cc3)cc12 [Example 18, {6-[4-(4-Methyl-piperazin-1-ylmethyl)-phenyl]-7H-pyrrolo[2,3-d]pyrimidin-4-yl}-propyl-amine]",6.03,83
"CCCN(C)c1ncnc2[nH]c(-c3ccc(CN4CCN(C)CC4)cc3)cc12 [Example 19, Methyl-{6-[4-(4-methyl-piperazin-1-ylmethyl)-phenyl]-7H-pyrrolo[2,3-d]pyrimidin-4-yl}-propyl-amine]",5.68,85
"CN(C)c1ncnc2[nH]c(-c3ccc(Cn4ccnc4)cc3)cc12 [Example 24, [6-(4-Imidazol-1-ylmethyl-phenyl)-7H-pyrrolo[2,3-d]pyrimidin-4-yl]-dimethylamine]",6.10,75
"CN(C)c1ncnc2[nH]c(-c3ccc(Cc4ccc[nH]4)cc3)cc12 [Example 25, Dimethyl-{6-[4-(1H-pyrrol-2-ylmethyl)-phenyl]-7H-pyrrolo[2,3-d]pyrimidin-4-yl}-amine]",≤ 5.00,50
"CN(C)c1ncnc2[nH]c(-c3ccc(Cn4cnnn4)cc3)cc12 [Example 27, Dimethyl-[6-(4-tetrazol-1-ylmethyl-phenyl)-7H-pyrrolo[2,3-d]pyrimidin-4-yl]-amine]",6.04,58
"CN(C)c1ncnc2[nH]c(-c3ccc(CNCCCO)cc3)cc12 [Example 28, 3-[4-(4-Dimethylamino-7H-pyrrolo[2,3-d]pyrimidin-6-yl)-benzylamino]-propan-1-ol]",6.39,76
"COCCN(C)Cc1ccc(-c2cc3c(N(C)C)ncnc3[nH]2)cc1 [Example 29, [6-(4-{[(2-Methoxy-ethyl)-methyl-amino]-methyl}-phenyl)-7H-pyrrolo[2,3-d]pyrimidin-4-yl]-dimethyl-amine]",6.56,76
"CCC(O)(CC)c1ccc(-c2cc3c(NCCCn4cccc4)ncnc3[nH]2)cc1 [Example 33, 3-{4-[4-(3-Pyrrol-1-yl-propylamino)-7H-pyrrolo[2,3-d]pyrimidin-6-yl]-phenyl}-pentan-3-ol]",5.61,84
"CN(C)c1ncnc2[nH]c(-c3ccc(C(C)(C)O)cc3)cc12 [Example 34, 2-[4-(4-Dimethylamino-7H-pyrrolo[2,3-d]pyrimidin-6-yl)-phenyl]-propan-2-ol]",6.03,66
"CNc1ncnc2[nH]c(-c3ccc(C(C)(C)O)cc3)cc12 [Example 35, 2-[4-(4-Methylamino-7H-pyrrolo[2,3-d]pyrimidin-6-yl)-phenyl]-propan-2-ol]",–,76
"[4-(4-Methylamino-7H-pyrrolo[2,3-d]pyrimidin-6-yl)-phenyl]-morpholin-4-yl-methanone [Example 2]",6.53,77

# Reference: US7625894B2, “Pyrrolo[2,3-d]Pyrimidines as Protein Tyrosine Kinase Inhibitors” (Novartis AG, priority 2004, dated 2009)
